Read-outs that look alike come from different tables or passages of the source. Where only a bound is given, the exact number is not on record here.

Usually IC50 stands for the concentration that gives 50% inhibition.

The subject of one experiment is AT-2 cells. The experiment can be described thus: Inhibition of Growth of Prostate Cancer Cell Line (MTS assay). It counts as cell-based. The following applies: 72 h, read-out: AT-2 cell growth IC50. Here is the method:
AT-2 cells are a prostate cancer cell sub-line derived from the Dunning H tumor, graciously provided to us by Dr. John Isaacs (John Hopkins, M. D.). Unlike the Dunning H tumor cells, AT-2 cells can be grown in vitro.
Methods: At-2 cells ([…]) were plated on tissue culture plastic in 96-well plates in the presence of RPMI-1640 medium containing 10% fetal calf serum, 250 nM dexamethasone, 2 mM glutamine, 1 mM sodium pyruvate, and penicillin/streptomycin antibiotics. The next day, compounds were added at 4 concentrations (10, 1, 0.1, 0.01 μM) to determine the approximate IC50 range. Cultures were assayed 3 days later for cell number using the MTS [(3-(4,5-dimethylthiazol-2-yl)-5-(3-carboxymethoxyphenyl)-2-(4-sulfophenyl)-2H-tetrazolium, inner salt)] assay. The MTS assay (purchased as a kit from Promega) measures the formation of an aqueous soluble formazan (detected by a plate reader at 490nm) produced by the bioreduction of a tetrazolium compound (MTS) in metabolically active cells via mitochondrial succinate dehydrogenase. After determining linearity of the substrate incubation time over a range of cell plating densities, the amount of product measured is directly proportional to cell number. MTS (333 ug/ml) and 25 μM phenazine methosulfate are mixed and added directly to the culture medium, and incubated at 37° C. in the 5% CO2 /95% air incubator for 0.5-4 h. Absorbance of the product at 490 nm is read on the BIO-TEK plate reader. Background values were obtained from wells containing culture medium with substrate solution, but no cells. In addition, values were also obtained from wells containing cells plated at day 0 and assayed on the day compound was added (day 1) in order to determine the number of cells at the time compound was added. After the initial dose-finding experiment was completed, subsequent experiments were set up so that there were 3 or more concentrations near the predicted IC50.
For orientation: Formazan colour is commonly taken as a measure of viable cells.

The test system of experiment [1] is ChAT activity of basal forebrain cultures. The experiment can be described thus: Basal Forebrain ChAT Activity Assay. The format is cell-based, rat. The method, then: Fused pyrrolocarbazoles were tested for the ability to increase ChAT activity of basal forebrain cultures.
Methods: The basal forebrain was dissected from rat embryos (day 17 or 18 embryos) and the cells were dissociated with a neutral protease (Dispase™, Collaborative Research). Neurons were plated at a density of 5×10^4 cells/well (1.5×10^5 cells/cm^2) in poly-1-ornithine and laminin coated plates. Cells were cultured in serum-free N2 medium containing 0.05% BSA at 37° C. in a humidified atmosphere, 5% CO2 /95% air. ChAT activity was assessed 5 days after plating by using the ChAT assay as described in Example III(A)(1).

The target of the next experiment is protein kinase C. The experiment can be described thus: PKC Activity Inhibition Assay. It counts as biochemical. The method, then: Fused pyrrolocarbazoles inhibited the activity of protein kinase C (Table VI). The protein kinase C assay has been disclosed (Murakata et al., U.S. Pat. No. 4,923,986; Kikkawa et al., J. Biol. Chem. 257:13341-13348 (1982)). The assay was performed with several concentrations of fused pyrrolocarbazoles. The concentration at which protein kinase C was 50% inhibited (IC50) was determined.

Experiment [2] has as its system choline acetyltransferase (ChAT) activity in dissociated rat embryonic spinal cord culture. The experiment can be described thus: Spinal Cord ChAT Activity Assay. The format is cell-based. To be noted: ChAT measured after 48 hours.
Method: In these assays, a fused pyrrolocarbazole was directly added to a dissociated spinal cord culture. […] The fused pyrrolocarbazole was added on the same day the dissociated spinal cord cell culture was initiated.
Methods: Fetal rat spinal cord cells were dissociated, and experiments were performed as described (Smith et al., J. Cell Biology., 101:1608-1621 (1985); Glicksman et al., J. Neurochem. 61:210-221 (1993)). Dissociated cells were prepared from spinal cords dissected from rats (embryonic day 14-15) by standard trypsin dissociation techniques (Smith et al., J. Cell Biology 10:1608-1621 (1985)). Cells were plated at 6×10^5 cells/cm^2 on poly-1-ornithine coated plastic tissue culture wells in serum-free N2 medium supplemented with 0.05% bovine serum albumin (BSA) (Bottenstein et al., PNAS USA 514-517 (1979)). Cultures were incubated at 37° C. in a humidified atmosphere of 5% CO2 /95% air for 48 hours. ChAT activity was measured after 2 days it vitro using a modification of the Fonnum procedure (Fonnum, J. Neurochem. 24:407-409 (1975)) according to McManaman et al. and Glicksman et al. (McManaman et al., Developmental Biology 125:311-320 (1988); Glicksman et al., J. Neurochem. 61:210-221 (1993)).
The subject of experiment [3] is NT-3 induced ChAT activity of rat basal forebrain cultures. The experiment can be described thus: Enhancement of Neurotrophin (NT-3) Activity Assay, ChAT activity in basal forebrain cultures. The format is cell-based. The method, then: Fused pyrrolocarbazoles were tested for the ability to enhance the activity of the neurotrophin NT-3 in basal forebrain cultures. ChAT activity was assayed as a measure of cholinergic neuron function and survival. The concentration of NT-3 (100 ng/ml) used in these experiments increased ChAT activity over control cultures (untreated with NT-3 or a fused pyrrolocarbazole) by 140%.
Methods. Basal forebrain cultures were prepared from embryonic rats (embryonic day 17) and dissociated with the neutral protease Dispase™. Cells were plated at a density of 4×10^5 cells/cm^2 on poly-1-ornithine coated plastic tissue culture plates in a mixture of DMEM and F12 media (50/50 v/v GIBCO) supplemented with 5% horse serum and 0.5% fetal bovine serum. Cells were incubated at 37° C. in a humidified atmosphere of 5% CO2 /95% air for 5 days. ChAT activity was measured as described in Example III(A)(1).
Recombinant rat NT-3 was produced by using a recombinant baculovirus expression vector under the control of the polyhedron virus promoter (Fraser, In Vitro Cell. and Dev. Biol. 25:225-235 (1989)). The plasmid pXM-NT3 (Hallbook et al., Neuron 6:845-858 (1991), which contained the rat NT-3 cDNA clone, was provided by Dr. Ira Black (University of Medicine and Dentistry of New Jersey, Piscataway, N.J.). NT-3 cDNA was subcloned into the transfer vector pVL1392 (In Vitrogen Corp., San Diego, Calif.) for recombinant virus production. Recombinant baculovirus was produced as described in Meyer et al. (Meyer at al., J. Neurochem 62:825-833 (1994)).

Another experiment deals with trkA tyrosine kinase (Homo sapiens, UniProt P04629). The experiment can be described thus: trkA Tyrosine Kinase Activity Inhibition Assay (ELISA). The format is biochemical.
Chain of trkA tyrosine kinase (P04629 33-796): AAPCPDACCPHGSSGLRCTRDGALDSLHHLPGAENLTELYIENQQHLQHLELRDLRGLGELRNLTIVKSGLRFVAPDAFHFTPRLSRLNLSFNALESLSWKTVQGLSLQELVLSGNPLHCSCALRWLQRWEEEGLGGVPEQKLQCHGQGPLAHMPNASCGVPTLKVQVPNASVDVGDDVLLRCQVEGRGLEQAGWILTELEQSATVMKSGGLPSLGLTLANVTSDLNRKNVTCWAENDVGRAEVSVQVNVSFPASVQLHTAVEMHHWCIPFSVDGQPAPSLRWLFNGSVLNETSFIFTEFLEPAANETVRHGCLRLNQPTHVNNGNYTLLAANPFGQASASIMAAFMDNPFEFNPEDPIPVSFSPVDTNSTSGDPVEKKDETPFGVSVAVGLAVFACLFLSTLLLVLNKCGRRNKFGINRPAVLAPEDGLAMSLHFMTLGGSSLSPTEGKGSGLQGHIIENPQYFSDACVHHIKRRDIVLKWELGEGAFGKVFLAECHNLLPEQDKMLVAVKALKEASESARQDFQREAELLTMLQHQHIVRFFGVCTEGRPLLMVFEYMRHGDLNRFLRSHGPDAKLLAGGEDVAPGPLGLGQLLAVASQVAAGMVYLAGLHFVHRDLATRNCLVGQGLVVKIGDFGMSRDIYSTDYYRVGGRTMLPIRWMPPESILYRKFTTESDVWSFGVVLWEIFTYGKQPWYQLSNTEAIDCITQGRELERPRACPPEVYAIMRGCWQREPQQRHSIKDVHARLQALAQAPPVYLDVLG
For another experiment, the system named is chick DRG neurons. The experiment can be described thus: DRG Neuron Survival Assay (calcein AM). It counts as cell-based. The following applies: 48 hours; for viability at 0.25 µM: 250 nM. Here is the method: Fused pyrrolocarbazoles promoted dorsal root ganglion (DRG) neuronal survival in cultures of chick DRG neurons. Cell survival was measured by uptake of calcein AM, an analog of the viable dye, fluorescein diacetate. Calcein is taken up by viable cells and cleaved intracellularly to fluorescent salts which are retained by intact membranes of viable cells. Microscopic counts of viable neurons correlate directly with relative fluorescence values obtained with the fluorimetric viability assay. This method thus provides a reliable and quantitive measurement of cell survival in the total cell population of a given culture (Bozyczko-Coyne et al., J. Neur. Meth. 50:205-216, 1993).
Methods: Dorsal root ganglia were dissected from embryonic age day 9 chick embryos and dissociated cells prepared by subsequent Dispase (neutral protease, Collaborative Research) dissociation. Neurons were seeded at low density (3×10^4 cells/cm^2) into 96 well poly-L-ornithine and laminin coated plates. Cells were cultured for 48 hours in serum-free N2 medium (Bottenstein and Sato, 1979) at 37° C. in a humidified atmosphere, 5% CO2 /95% air. Cell survival was assessed at 48 hours using the viable fluorimetric assay described above.

Where [4] appears, read: 16 μM ATP, 37° C., 15 min, read-out: INHIBITION OF trkA KINASE IC50.
[5] abbreviates: Gallus gallus, DRG neuron, read-out: Neuronal Survival (% of Control).

Method for trkA tyrosine kinase: These compounds were then tested for the ability to inhibit substrate phosphorylation by the trkA tyrosine kinase.
Plates were washed three times with TBST, followed by two washes with TBS (TBST sans Tween-20). Fused pyrrolocarbazoles were then added at various concentrations to a reaction mixture (50 mM HEPES, pH 7.4, 5 mM MnCl2, 5 mM MgCl2, 140 mM NaCl, 16 μM ATP, and 15 ng trkA in a total volume of 1001 μL.). As a negative control, 100 mM EDTA was included in the reaction solution. The plates were then incubated at 37° C. for 15 min. The detection antibody, monoclonal anti-phosphotyrosine antibody (UBI), was added at a dilution of 1:2000 in TBST, and incubated for 1 hour at 37° C. Plates were then washed three times with TBST, followed by a 1 hour incubation at 37° C. with alkaline phosphatase-labeled goat anti-mouse IgG (1:2000 in TBST (Bio-Rad)). After washing three times with TBST followed by two washes with TBS, a colored product was produced by using NADPH as substrate for alkaline phosphatase, and the coupled reactions of diaphorase and alcohol dehydrogenase (GIBCO-BRL ELISA amplification system). The colored product was read at 490 nm in a microplate reader (Biotek).

On to `O=C1NCc2c3c(c4[nH]c5ccccc5c4c21)Cc1ccccc1-3` [Compound I-3], for which the concentration for half-maximal inhibition (IC50) in the experiment with AT-2 cells (3 days, MTS) is 380 nM; on protein kinase C, 100 nM. Besides, the “ChAT Activity (% of Control)” value in experiment [1] (100 nM) and in experiment [1] (250 nM) was “inactive” throughout. In experiment [1] (Rattus norvegicus, 120 h, 500 nM, read-out: ChAT Activity (% of Control)), the activity at 0.5 µM came to 130%. The “Spinal Cord ChAT Activity, % of Control, untreated cultures” value (“Spinal Cord ChAT Activity, % of Control” for short) in experiment [2] was 174 % of Control.

With `O=C1NC(=O)c2c1c1c(c3[nH]c4ccc(F)cc4c23)Cc2ccccc2-1` [Compound I-7], the “ChAT activity in the absence of NT-3” value in experiment [3] (compound added alone to basal forebrain neurons, no NT-3) is reported as “no effect on ChAT activity”. Moreover, the “ChAT activity in the presence of NT-3” value in experiment [3] (with 100 ng/ml NT-3) was “enhanced ChAT activity”. The IC50 was 1370 nM in the experiment with AT-2 cells (3 days, MTS); 150 nM against protein kinase C; above 1000 nM at trkA tyrosine kinase (setting [4]). The “Spinal Cord ChAT Activity, % of Control” value in experiment [2] is 164 % of Control.

Take `O=C1NC(=O)c2c1c1c(c3[nH]c4ccccc4c23)CCc2ccccc2-1` [Compound I-14, 12,13-Dihydro-6H, 14H-naphthyl[3,4-a]pyrrolo[3,4-c]carbazole-5,7(5H, 7H)dione]: the values for the concentration for half-maximal inhibition (IC50) with AT-2 cells and against protein kinase C were 3070 nM and 15 nM, respectively. Further, the “Spinal Cord ChAT Activity, % of Control” value in experiment [2] is given as 153 % of Control.

On to `O=C1NC(=O)c2c1c1c3ccccc3ccc1c1[nH]c3ccccc3c21` [Compound I-15, 6H, 14H-naphthyl[3,4-a]pyrrolo[3,4-c]carbazole-5,7(5H, 7H)-dione], for which the IC50 was 4300 nM in the experiment with AT-2 cells, 50 nM against protein kinase C and above 1000 nM at trkA tyrosine kinase. Also, the “Neuronal Survival (% of Control)” value in the experiment with chick DRG neurons (100 nM) and with chick DRG neurons (500 nM) was “inactive” each time. In addition, in the experiment with chick DRG neurons (setting [5]), the viability at 0.25 µM was 132%. For the same compound, the “Spinal Cord ChAT Activity, % of Control” value in experiment [2] was 182 % of Control.

For `O=C1NC(=O)c2c1c1c3ccccc3[nH]c1c1sc3ccccc3c21` [Compound I-20, 6H, 12-Benzo[b]thieno[2,3-a]pyrrolo[3,4-c]carbazole-5,7(5H,7H)dione], the concentration for half-maximal inhibition (IC50) in the experiment with AT-2 cells (3 days, MTS) is above 10000 nM; against protein kinase C, 150 nM. In experiment [2], the “Spinal Cord ChAT Activity, % of Control” value is reported as 130 % of Control.

As to `O=C1NC(=O)c2c1c1c3ccccc3[nH]c1c1oc3ccccc3c21` [Compound I-21, 6H, 13H -Benzofuranyl[2,3-a]pyrrolo[3,4-c]carbazole-5,7(5H, 7H)dione], the half-maximal inhibitory concentration (IC50) in the experiment with AT-2 cells (3 days, MTS) is above 10000 nM. Moreover, in experiment [2], the “Spinal Cord ChAT Activity, % of Control” value is listed as 122 % of Control.

On to `O=C1NCc2c1c1c(c3[nH]c4ccc(C=Cc5ccccc5)cc4c23)Cc2ccccc2-1` [Compound I-24, 3-(2-Phenylethenyl)5H,6H,12H,13H-indeno[2,3-a]pyrrolo[3,4-c]carbazole-7(7H)-one], for which the concentration for half-maximal inhibition (IC50) with AT-2 cells (3 days, MTS) was above 10000 nM; at protein kinase C, 8000 nM; at trkA tyrosine kinase (setting [4]), above 1000 nM. Moreover, the viability at 0.1 µM in the experiment with chick DRG neurons (Gallus gallus, DRG neuron, 100 nM, read-out: Neuronal Survival (% of Control)) is 154%. Moreover, the viability at 0.25 µM in the experiment with chick DRG neurons (setting [5]) is 167%. Besides, the viability at 0.5 µM in the experiment on chick DRG neurons (Gallus gallus, DRG neuron, 500 nM, read-out: Neuronal Survival (% of Control)) was 163%. Moreover, the “ChAT Activity (% of Control)” value in experiment [1] (100 nM) is “inactive”. Further, in experiment [1] (Rattus norvegicus, 120 h, 250 nM, read-out: ChAT Activity (% of Control)), the activity at 0.25 µM was found to be 151%. In experiment [2], the “Spinal Cord ChAT Activity, % of Control” value is listed as 236 % of Control.

These data come from patent publication US5594009A, “Fused pyrrolocarbazoles” (priority 1995, dated 1997).
